Data as given in patent publication US6525001B1, “Substituted pyrimidine and pyridine herbicides” (Mid-American Commercialization Corporation, priority 1997, dated 2003).

Key:
Format in all cases: in vivo
[1] = system: purple nutsedge (Cyperus rotundus); test: Test C; parameters: key: 0 was no effect; 100 was complete control
[2] = system: corn (Zea mays); test: Test C; parameters: key: 0 was no effect; 100 was complete control
[3] = system: arrowleaf sida (Sida rhombifolia); test: Test C
[4] = system: hairy beggarticks (Bidens pilosa); test: Test C
[5] = system: cocklebur (Xanthium strumarium); test: Test C; parameters: key: 0 was no effect; 100 was complete control
[6] = system: common ragweed (Ambrosia elatior); test: Test E pre-/postemergence/post directed
How it was run: (§1)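 Injury scored visually on a 0–100 scale (100 = complete control) 13 to 21 days after treatment. Test chemicals, formulated with surfactant in non-phytotoxic solvent, were applied to soil within one day of planting, to plants at two to four leaves (three to twenty cm), or as directed spray at plant base.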

[7] = system: johnson grass (Sorghum halepense); test: Test E pre-/postemergence/post directed
How it was run: as §1

[8] = system: alexandergrass (Brachiaria plantaginea); test: Test E pre-/postemergence/post directed
How it was run: as §1

[9] = system: itchgrass (Rottboellia exaltata); test: Test E pre-/postemergence/post directed
How it was run: as §1

[10] = system: pitted morningglory (Ipomoea lacunosa); test: Test E pre-/postemergence/post directed
How it was run: as §1

[11] = system: surinam grass (Brachiaria decumbens); test: Test E pre-/postemergence/post directed
How it was run: as §1

[12] = system: common groundsel (Senecio vulgaris); test: Test E pre-/postemergence/post directed
How it was run: as §1

[13] = system: Spanishneedles (Bidens bipinnata); test: Test E pre-/postemergence/post directed
How it was run: as §1

[14] = system: large crabgrass (Digitaria sanguinalis); test: Test E pre-/postemergence/post directed
How it was run: as §1

[15] = system: sandbur (Cenchrus echinatus); test: Test E pre-/postemergence/post directed; conditions: PREEMERGENCE
How it was run: as §1

[16] = system: bermudagrass (Cynodon dactylon); test: Test E pre-/postemergence/post directed
How it was run: as §1

[17] = system: large crabgrass (Digitaria sanguinalis); test: Test C; parameters: key: 0 was no effect; 100 was complete control
[18] = system: purple nutsedge (Cyperus rotundus); test: Test E pre-/postemergence/post directed; parameters: key: 0 is no injury; 100 is complete control
How it was run: as §1

[19] = system: sandbur (Cenchrus echinatus); test: Test E pre-/postemergence/post directed; parameters: key: 0 is no injury; 100 is complete control
How it was run: as §1

[20] = system: ivyleaf morningglory (Ipomoea hederacea); test: Test C; parameters: key: 0 was no effect; 100 was complete control
[21] = system: soybean (Glycine max); test: Test C

Cc1cnc(-c2ccc(C(F)(F)F)cc2)nc1Cn1ccc(C(F)(F)F)n1 [compound 9]
Plant response rating, Purple nutsedge ([1]; POSTEMERGENCE, Rate 35 g/ha): 5
Plant response rating, Purple nutsedge ([1]; POSTEMERGENCE, Rate 70 g/ha): 5
Plant response rating, Purple nutsedge ([1]; POSTEMERGENCE, Rate 140 g/ha): 5
Plant response rating, Purple nutsedge ([1]; PREEMERGENCE, Rate 35 g/ha): 0
Plant response rating, Purple nutsedge ([1]; PREEMERGENCE, Rate 70 g/ha): 0
Plant response rating, Purple nutsedge ([1]; PREEMERGENCE, Rate 140 g/ha): 0
Plant response rating, Corn ([2]; POSTEMERGENCE, Rate 35 g/ha): 10
Plant response rating, Corn ([2]; POSTEMERGENCE, Rate 70 g/ha): 15
Plant response rating, Corn ([2]; POSTEMERGENCE, Rate 140 g/ha): 15
Plant response rating, Corn ([2]; PREEMERGENCE, Rate 35 g/ha): 0
Plant response rating, Corn ([2]; PREEMERGENCE, Rate 70 g/ha): 5
Plant response rating, Corn ([2]; PREEMERGENCE, Rate 140 g/ha): 10
Plant response rating, Arrowleaf sida ([3]; POSTEMERGENCE, Rate 35 g/ha): 80
Plant response rating, Arrowleaf sida ([3]; POSTEMERGENCE, Rate 70 g/ha): 90
Plant response rating, Arrowleaf sida ([3]; POSTEMERGENCE, Rate 140 g/ha): 90
Plant response rating, Arrowleaf sida ([3]; PREEMERGENCE, Rate 35 g/ha): 90
Plant response rating, Arrowleaf sida ([3]; PREEMERGENCE, Rate 70 g/ha): 95
Plant response rating, Arrowleaf sida ([3]; PREEMERGENCE, Rate 140 g/ha): 95
Plant response rating, H. beggarticks ([4]; POSTEMERGENCE, Rate 35 g/ha): 65
Plant response rating, H. beggarticks ([4]; POSTEMERGENCE, Rate 70 g/ha): 70
Plant response rating, H. beggarticks ([4]; POSTEMERGENCE, Rate 140 g/ha): 80
Plant response rating, H. beggarticks ([4]; PREEMERGENCE, Rate 35 g/ha): 85
Plant response rating, H. beggarticks ([4]; PREEMERGENCE, Rate 70 g/ha): 85
Plant response rating, H. beggarticks ([4]; PREEMERGENCE, Rate 140 g/ha): 85
Plant response rating, Cocklebur ([5]; POSTEMERGENCE, Rate 35 g/ha): 60
Plant response rating, Cocklebur ([5]; POSTEMERGENCE, Rate 70 g/ha): 80
Plant response rating, Cocklebur ([5]; POSTEMERGENCE, Rate 140 g/ha): 80
Plant response rating, Cocklebur ([5]; PREEMERGENCE, Rate 35 g/ha): 0
Plant response rating, Cocklebur ([5]; PREEMERGENCE, Rate 70 g/ha): 0
Plant response rating, Cocklebur ([5]; PREEMERGENCE, Rate 140 g/ha): 0
Plant response rating, Com. ragweed ([6]; POSTEMERGENCE, Rate 125 g/ha): 10
Plant response rating, Com. ragweed ([6]; POSTEMERGENCE, Rate 250 g/ha): 10
Plant response rating, Com. ragweed ([6]; PREEMERGENCE, Rate 32 g/ha): 10
Plant response rating, Com. ragweed ([6]; PREEMERGENCE, Rate 125 g/ha): 98
Plant response rating, Johnsongrass ([7]; POSTEMERGENCE, Rate 125 g/ha): 85
Plant response rating, Johnsongrass ([7]; POSTEMERGENCE, Rate 250 g/ha): 85
Plant response rating, Johnsongrass ([7]; PREEMERGENCE, Rate 32 g/ha): 55
Plant response rating, Johnsongrass ([7]; PREEMERGENCE, Rate 64 g/ha): 75
Plant response rating, Johnsongrass ([7]; PREEMERGENCE, Rate 125 g/ha): 85
Plant response rating, Johnsongrass ([7]; PREEMERGENCE, Rate 250 g/ha): 90
Plant response rating, Alexandergrass ([8]; POSTEMERGENCE, Rate 125 g/ha): 10
Plant response rating, Alexandergrass ([8]; POSTEMERGENCE, Rate 250 g/ha): 10
Plant response rating, Alexandergrass ([8]; PREEMERGENCE, Rate 32 g/ha): 30
Plant response rating, Alexandergrass ([8]; PREEMERGENCE, Rate 64 g/ha): 65
Plant response rating, Alexandergrass ([8]; PREEMERGENCE, Rate 125 g/ha): 65
Plant response rating, Itchgrass ([9]; POSTEMERGENCE, Rate 125 g/ha): 30
Plant response rating, Itchgrass ([9]; POSTEMERGENCE, Rate 250 g/ha): 30
Plant response rating, Itchgrass ([9]; PREEMERGENCE, Rate 64 g/ha): 85
Plant response rating, P. morninglory ([10]; POSTEMERGENCE, Rate 125 g/ha): 40
Plant response rating, P. morninglory ([10]; POSTEMERGENCE, Rate 250 g/ha): 50
Plant response rating, P. morninglory ([10]; PREEMERGENCE, Rate 32 g/ha): 45
Plant response rating, P. morninglory ([10]; PREEMERGENCE, Rate 64 g/ha): 60
Plant response rating, P. morninglory ([10]; PREEMERGENCE, Rate 125 g/ha): 75
Plant response rating, Surinam grass ([11]; POSTEMERGENCE, Rate 125 g/ha): 10
Plant response rating, Surinam grass ([11]; POSTEMERGENCE, Rate 250 g/ha): 10
Plant response rating, Surinam grass ([11]; PREEMERGENCE, Rate 64 g/ha): 10
Plant response rating, Surinam grass ([11]; PREEMERGENCE, Rate 125 g/ha): 20
Plant response rating, Com. groundsel ([12]; POSTEMERGENCE, Rate 125 g/ha): 25
Plant response rating, Com. groundsel ([12]; POSTEMERGENCE, Rate 250 g/ha): 30
Plant response rating, Com. groundsel ([12]; PREEMERGENCE, Rate 32 g/ha): 98
Plant response rating, Spanishneedles ([13]; POSTEMERGENCE, Rate 125 g/ha): 10
Plant response rating, Spanishneedles ([13]; POSTEMERGENCE, Rate 250 g/ha): 15
Plant response rating, Spanishneedles ([13]; PREEMERGENCE, Rate 64 g/ha): 20
Plant response rating, Spanishneedles ([13]; PREEMERGENCE, Rate 125 g/ha): 30
Plant response rating, Spanishneedles ([13]; PREEMERGENCE, Rate 250 g/ha): 60
Plant response rating, Large crabgrass ([14]; POSTEMERGENCE, Rate 125 g/ha): 5
Plant response rating, Large crabgrass ([14]; POSTEMERGENCE, Rate 250 g/ha): 10
Plant response rating, Large crabgrass ([14]; PREEMERGENCE, Rate 32 g/ha): 70
Plant response rating, Sandbur ([15]; Rate 125 g/ha): 10
Plant response rating, Sandbur ([15]; Rate 250 g/ha): 20
Plant response rating, Bermudagrass ([16]; POSTEMERGENCE, Rate 125 g/ha): 10
Plant response rating, Bermudagrass ([16]; POSTEMERGENCE, Rate 250 g/ha): 10
Plant response rating, Bermudagrass ([16]; PREEMERGENCE, Rate 32 g/ha): 70
Plant response rating, Bermudagrass ([16]; PREEMERGENCE, Rate 64 g/ha): 98
Plant response rating, Large crabgrass ([17]; POSTEMERGENCE, Rate 35 g/ha): 20
Plant response rating, Large crabgrass ([17]; POSTEMERGENCE, Rate 70 g/ha): 40
Plant response rating, Large crabgrass ([17]; POSTEMERGENCE, Rate 140 g/ha): 50
Plant response rating, Large crabgrass ([17]; PREEMERGENCE, Rate 35 g/ha): 95
Plant response rating, Large crabgrass ([17]; PREEMERGENCE, Rate 70 g/ha): 100
Plant response rating, Large crabgrass ([17]; PREEMERGENCE, Rate 140 g/ha): 100
Plant response rating, Purple nutsedge ([18]; POSTEMERGENCE, Rate 125 g/ha): 0
Plant response rating, Purple nutsedge ([18]; POSTEMERGENCE, Rate 250 g/ha): 0
Plant response rating, Purple nutsedge ([18]; PREEMERGENCE, Rate 32 g/ha): 0
Plant response rating, Purple nutsedge ([18]; PREEMERGENCE, Rate 64 g/ha): 0
Plant response rating, Purple nutsedge ([18]; PREEMERGENCE, Rate 125 g/ha): 0
Plant response rating, Purple nutsedge ([18]; PREEMERGENCE, Rate 250 g/ha): 0
Plant response rating, Sandbur ([19]; POSTEMERGENCE, Rate 125 g/ha): 0
Plant response rating, Sandbur ([19]; POSTEMERGENCE, Rate 250 g/ha): 0
Plant response rating, Sandbur ([19]; PREEMERGENCE, Rate 32 g/ha): 0
Plant response rating, Sandbur ([19]; PREEMERGENCE, Rate 64 g/ha): 0
Plant response rating, I. morningglory ([20]; POSTEMERGENCE, Rate 35 g/ha): 50
Plant response rating, I. morningglory ([20]; POSTEMERGENCE, Rate 70 g/ha): 60
Plant response rating, I. morningglory ([20]; POSTEMERGENCE, Rate 140 g/ha): 100
Plant response rating, I. morningglory ([20]; PREEMERGENCE, Rate 35 g/ha): 20
Plant response rating, I. morningglory ([20]; PREEMERGENCE, Rate 70 g/ha): 50
Plant response rating, I. morningglory ([20]; PREEMERGENCE, Rate 140 g/ha): 50
Plant response rating, Soybean ([21]; POSTEMERGENCE, Rate 35 g/ha): 40
Plant response rating, Soybean ([21]; POSTEMERGENCE, Rate 70 g/ha): 50
Plant response rating, Soybean ([21]; POSTEMERGENCE, Rate 140 g/ha): 50
Plant response rating, Soybean ([21]; PREEMERGENCE, Rate 35 g/ha): 20
Plant response rating, Soybean ([21]; PREEMERGENCE, Rate 70 g/ha): 20
Plant response rating, Soybean ([21]; PREEMERGENCE, Rate 140 g/ha): 25
